For 4 compounds, IC50 results are on record in BindingDB's records for doi:10.1021/acsmedchemlett.5b00177 (Dart Neuroscience, 2015).

For orientation: IC50 means the concentration needed to halve the response being measured.

Methionine aminopeptidase 2 (Homo sapiens), sequence (P50579 whole entry, looked up): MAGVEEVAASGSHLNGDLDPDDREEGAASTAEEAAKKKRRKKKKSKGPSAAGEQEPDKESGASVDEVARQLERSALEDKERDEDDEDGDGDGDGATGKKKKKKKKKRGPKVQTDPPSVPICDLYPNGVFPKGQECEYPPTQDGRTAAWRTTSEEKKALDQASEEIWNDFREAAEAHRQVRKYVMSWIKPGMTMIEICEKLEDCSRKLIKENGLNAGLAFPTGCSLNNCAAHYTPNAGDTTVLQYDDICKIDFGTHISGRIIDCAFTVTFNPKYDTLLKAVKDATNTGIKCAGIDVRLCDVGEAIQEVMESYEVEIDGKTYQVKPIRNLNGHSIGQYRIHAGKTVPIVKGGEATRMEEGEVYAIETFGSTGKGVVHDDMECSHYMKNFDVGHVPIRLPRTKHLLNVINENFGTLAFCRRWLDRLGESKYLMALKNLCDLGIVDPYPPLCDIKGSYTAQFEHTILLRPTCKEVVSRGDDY

This experiment addresses Methionine aminopeptidase 2 (Homo sapiens) (UniProt P50579). Nature of the experiment: Inhibition of human METAP2 using Met-Pro-Arg-pNa substrate by para-nitroanilide chromophore release detection assay.
`O=c1c2cn[nH]c2c2cnc(-c3ncccc3Cl)cc2n1CC(F)(F)F` returned an IC50 of 13 µM. This counts as double-digit micromolar. Next, `CN1CCN(c2ccc(-c3cnc4c5[nH]ncc5c(=O)n(CC(F)(F)F)c4c3)cn2)CC1`: 5 µM.

The compound `CN1CCN(c2cncc(-c3cnc4c5[nH]ncc5c(=O)n(CC(F)(F)F)c4c3)c2)CC1` displayed an IC50 of 24 µM. On to `O=c1c2cn[nH]c2c2ncc(-c3ccccc3C(F)(F)F)cc2n1CC(F)(F)F`, for which the concentration for half-maximal inhibition (IC50) was determined as 20 µM.
